The subject of assay [1] is Brown spot fungus (Cochliobolus miyabeanus). Nature of the assay: Rice Brown spot control test. In kind it is in vivo. As to conditions: same treatment as Example 3 (10 ppm in terms of cerebroside B), counted two days after spray inoculation.
The subject of assay [2] is rice blast fungus (Magnaporthe grisea, race: 007). Format: in vivo.
Assay [3] relates to sweet potato dead arm fungus (Fusarium oxysporum). Nature of the assay: Sweet potato stem rot control test. The conditions noted are these: sweet potato (Benikomachi) roots submerged 30 min, 20 ppm in terms of cerebroside B; disease development of roots 26 days after transplantation.
Description: The root parts of seedling sweet potatoes (variety: Benikomachi) infected with sweet potato dead arm fungus (Fusarium oxysporum) were submerged in each sample solution for 30 min before planting in a field. Individual plots were treated by the following sample liquids. Experimental plot (E) was treated with a liquid (concentration: 20 ppm in terms of cerebroside B) prepared by diluting ethanol extract concentrate A prepared in Example 1 by 150 times. Comparison plot (H) was treated with a liquid having a cerebroside B concentration of 20 ppm. The number of plants per plot was 20, and one plot consisted of four blocks which were provided at intervals of 60 cm. In this state, the plants were transplanted in the field.
The percentage disease development of roots was investigated 26 days after the transplantation, and the protective value was calculated from the average percentage disease development of roots.
Assay [4] has as its system lettuce root rot fungus (Fusarium oxysporum f. sp. lactucae race SB1-1). Nature of the assay: Lettuce root rot control test. In kind it is in vivo. As to conditions: submersion treatment, 20 ppm cerebroside B solution (H).
The subject of assay [5] is rice blast (leaf blast). In kind it is in vivo, Magnaporthe grisea. The conditions noted are these: rice (Koshihikari) field, spray 120 L/10 are on 44th and 51st days after transplantation; E and F 20 ppm in terms of cerebroside B, F and G with Mylinow spreader, G 500 ppm fthalide; leaf blast one month after initial application.
Assay [6] concerns tomato verticullium wilt fungus (Verticillium dahliae). Put plainly: Tomato verticillium wilt control test. In kind it is in vivo. As to conditions: submersion 12 hr, 20 ppm in terms of cerebroside B, 21st day.

Consider one molecule from US7316989B2 (priority 2001, dated 2008).

Like-named read-outs stand apart in the source and are kept apart here.

`CCCCCCCCCCCCCC[C@@H](O)C(=O)N[C@@H](CO[C@@H]1O[C@H](CO)[C@@H](O)[C@H](O)[C@H]1O)[C@H](O)/C=C/CC/C=C(\C)CCCCCCCCC` [cerebroside B, (4E,8E)-N-D-2′-hydroxypalmitoyl-1-O-β-D-glucopyranosyl-9-methyl-4,8-sphingadienine]: the Protective value in assay [1] came to 87.3; in assay [2] (Example 4, 10 ppm in terms of cerebroside B, 2 ml per pot to foliage, plot B with 0.1% Tween 20 as spreader), 87.6; in assay [2] (rice (Akitakomachi), foliar application 2 ml per pot, diluted to 10 ppm in terms of cerebroside B, inoculation 3 days after treatment, lesions counted 5 days after inoculation), 90; in assay [3], 70; in assay [4] (28th day), 78; in assay [5], 93. The molecule further returned a Protective value in assay [6] of 60. Moreover, the “Number of lesions (average number of lesions per leaf)” value in assay [1] (control plot 10.2) is recorded as 1.3; in assay [2] (Example 4, 10 ppm in terms of cerebroside B, 2 ml per pot to foliage, plot B with 0.1% Tween 20 as spreader, control plot 18.6), 2.3. Besides, in assay [4] (control plot = 100), the “Raw weight ratio on ground part” value worked out at 231.
